Test results reported in patent US6403830B2, “Amidino compound and salts thereof useful as nitric oxide synthase inhibitors” (Pharmacia Corporation, priority 2000, dated 2002).
Where a name gives a salt, the structure may show the parent alone.

Assays:
[1] = molecular target: T1, Human inducible NOS (hiNOS) (Homo sapiens, UniProt P35228); assay: Citrulline assay for nitric oxide synthase, hiNOS; assay type: biochemical; settings: recombinant enzyme, 30 μM L-arginine; averages across all experiments and all lots
T1 construct: made in house; host or cells: Sf9 insect cells (baculovirus vector)
T1 sequence (P35228 whole entry): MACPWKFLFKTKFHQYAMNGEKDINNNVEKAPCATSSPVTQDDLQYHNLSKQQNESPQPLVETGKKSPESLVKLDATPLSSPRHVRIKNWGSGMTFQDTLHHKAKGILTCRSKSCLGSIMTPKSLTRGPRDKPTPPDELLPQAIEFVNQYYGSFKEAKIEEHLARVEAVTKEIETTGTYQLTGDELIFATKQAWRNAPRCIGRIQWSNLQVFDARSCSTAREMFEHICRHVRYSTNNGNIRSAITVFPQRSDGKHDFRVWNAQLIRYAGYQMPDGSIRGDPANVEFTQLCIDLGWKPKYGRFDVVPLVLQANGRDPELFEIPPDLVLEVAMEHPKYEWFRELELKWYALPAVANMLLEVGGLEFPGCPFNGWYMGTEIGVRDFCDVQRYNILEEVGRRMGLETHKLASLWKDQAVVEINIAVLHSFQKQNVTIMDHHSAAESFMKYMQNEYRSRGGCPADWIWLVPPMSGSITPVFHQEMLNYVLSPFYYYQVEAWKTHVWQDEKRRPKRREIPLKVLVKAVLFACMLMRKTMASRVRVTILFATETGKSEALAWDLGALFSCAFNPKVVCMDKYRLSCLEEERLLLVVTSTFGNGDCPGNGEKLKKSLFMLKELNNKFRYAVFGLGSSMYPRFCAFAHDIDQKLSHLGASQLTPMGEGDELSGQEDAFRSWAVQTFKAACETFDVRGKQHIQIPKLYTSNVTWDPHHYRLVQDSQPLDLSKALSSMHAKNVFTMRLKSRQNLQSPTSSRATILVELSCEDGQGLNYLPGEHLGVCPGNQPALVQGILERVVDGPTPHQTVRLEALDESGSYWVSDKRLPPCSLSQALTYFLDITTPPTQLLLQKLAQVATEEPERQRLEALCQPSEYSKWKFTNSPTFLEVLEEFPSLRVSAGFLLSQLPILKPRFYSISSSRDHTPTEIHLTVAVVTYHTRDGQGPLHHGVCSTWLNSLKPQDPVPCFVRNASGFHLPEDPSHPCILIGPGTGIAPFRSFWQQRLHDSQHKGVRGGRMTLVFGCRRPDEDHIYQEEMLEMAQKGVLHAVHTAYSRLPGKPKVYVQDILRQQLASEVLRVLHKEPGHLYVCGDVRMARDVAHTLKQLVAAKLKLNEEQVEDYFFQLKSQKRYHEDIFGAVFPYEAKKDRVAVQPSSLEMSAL
From the text: (§1) Nitric oxide synthase (NOS) activity can be measured by monitoring the conversion of L-[2,3-^3H]-arginine to L-[2,3-^3H]-citrulline (Bredt and Snyder, Proc. Natl. Acad. Sci. U.S.A., 87, 682-685, 1990 and Moore et al, J. Med. Chem. 39, 669-672, 1996). Human inducible NOS (hiNOS), human endothelial constitutive NOS (hecNOS) and human neuronal constitutive NOS (hncNOS) are each cloned from RNA extracted from human tissue. The cDNA for human inducible NOS (hiNOS) is isolated from a λcDNA library made from RNA extracted from a colon sample from a patient with ulcerative colitis. The cDNA for human endothelial constitutive NOS (hecNOS) is isolated from a λcDNA library made from RNA extracted from human umbilical vein endothelial cells (HUVEC) and the cDNA for human neuronal constitutive NOS (hncNOS) is isolated from a λcDNA library made from RNA extracted from human cerebellum obtained from a cadaver. The recombinant enzymes are expressed in Sf9 insect cells using a baculovirus vector (Rodi et al, in The Biology of Nitric Oxide, Pt. 4: Enzymology, Biochemistry and Immunology: Moncada, S., Feelisch, M., Busse, R., Higgs, E., Eds.; Portland Press Ltd.: London, 1995; pp 447-450). Enzyme activity is isolated from soluble cell extracts and partially purified by DEAE-Sepharose chromatography. To measure NOS activity, 10 μL of enzyme is added to 40 μL of 50 mM Tris (pH 7.6) in the presence or absence of test compounds and the reaction initiated by the addition of 50 μL of a reaction mixture containing 50 mM Tris (pH 7.6), 2.0 mg/mL bovine serum albumin, 2.0 mM DTT, 4.0 mM CaCl2, 20 μM FAD, 100 μM tetrahydrobiopterin, 0.4 mM NADPH and 60 μM L-arginine containing 0.9 μCi of L-[2,3-^3H]-arginine. The final concentration of L-arginine in the assay is 30 μM. For hecNOS or hncNOS, calmodulin is included at a final concentration of 40-100 nM. Following incubation at 37° C. for 15 minutes, the reaction is terminated by addition of 400 μL of a suspension (1 part resin, 3 parts buffer) of Dowex 5OW X-8 cation exchange resin in a stop buffer containing 10 mM EGTA, 100 mM HEPES, pH 5.5 and 1 mM L-citrulline. After mixing the resin is allowed to settle and L-[2,3-^3H]-Citrulline formation is determined by counting aliquots of the supernatant with a liquid scintillation counter. Results are reported in Table 1 as the IC50 values of compounds for hiNOS, hecNOS and hncNOS.

[2] = molecular target: T2, human neuronal constitutive NOS (hncNOS) (Homo sapiens, UniProt P29475); assay: Citrulline assay for nitric oxide synthase, hncNOS; assay type: biochemical; settings: recombinant enzyme, 30 μM L-arginine, calmodulin; averages across all experiments and all lots
T2 construct: made in house; host or cells: Sf9 insect cells (baculovirus vector)
T2 sequence (P29475 whole entry): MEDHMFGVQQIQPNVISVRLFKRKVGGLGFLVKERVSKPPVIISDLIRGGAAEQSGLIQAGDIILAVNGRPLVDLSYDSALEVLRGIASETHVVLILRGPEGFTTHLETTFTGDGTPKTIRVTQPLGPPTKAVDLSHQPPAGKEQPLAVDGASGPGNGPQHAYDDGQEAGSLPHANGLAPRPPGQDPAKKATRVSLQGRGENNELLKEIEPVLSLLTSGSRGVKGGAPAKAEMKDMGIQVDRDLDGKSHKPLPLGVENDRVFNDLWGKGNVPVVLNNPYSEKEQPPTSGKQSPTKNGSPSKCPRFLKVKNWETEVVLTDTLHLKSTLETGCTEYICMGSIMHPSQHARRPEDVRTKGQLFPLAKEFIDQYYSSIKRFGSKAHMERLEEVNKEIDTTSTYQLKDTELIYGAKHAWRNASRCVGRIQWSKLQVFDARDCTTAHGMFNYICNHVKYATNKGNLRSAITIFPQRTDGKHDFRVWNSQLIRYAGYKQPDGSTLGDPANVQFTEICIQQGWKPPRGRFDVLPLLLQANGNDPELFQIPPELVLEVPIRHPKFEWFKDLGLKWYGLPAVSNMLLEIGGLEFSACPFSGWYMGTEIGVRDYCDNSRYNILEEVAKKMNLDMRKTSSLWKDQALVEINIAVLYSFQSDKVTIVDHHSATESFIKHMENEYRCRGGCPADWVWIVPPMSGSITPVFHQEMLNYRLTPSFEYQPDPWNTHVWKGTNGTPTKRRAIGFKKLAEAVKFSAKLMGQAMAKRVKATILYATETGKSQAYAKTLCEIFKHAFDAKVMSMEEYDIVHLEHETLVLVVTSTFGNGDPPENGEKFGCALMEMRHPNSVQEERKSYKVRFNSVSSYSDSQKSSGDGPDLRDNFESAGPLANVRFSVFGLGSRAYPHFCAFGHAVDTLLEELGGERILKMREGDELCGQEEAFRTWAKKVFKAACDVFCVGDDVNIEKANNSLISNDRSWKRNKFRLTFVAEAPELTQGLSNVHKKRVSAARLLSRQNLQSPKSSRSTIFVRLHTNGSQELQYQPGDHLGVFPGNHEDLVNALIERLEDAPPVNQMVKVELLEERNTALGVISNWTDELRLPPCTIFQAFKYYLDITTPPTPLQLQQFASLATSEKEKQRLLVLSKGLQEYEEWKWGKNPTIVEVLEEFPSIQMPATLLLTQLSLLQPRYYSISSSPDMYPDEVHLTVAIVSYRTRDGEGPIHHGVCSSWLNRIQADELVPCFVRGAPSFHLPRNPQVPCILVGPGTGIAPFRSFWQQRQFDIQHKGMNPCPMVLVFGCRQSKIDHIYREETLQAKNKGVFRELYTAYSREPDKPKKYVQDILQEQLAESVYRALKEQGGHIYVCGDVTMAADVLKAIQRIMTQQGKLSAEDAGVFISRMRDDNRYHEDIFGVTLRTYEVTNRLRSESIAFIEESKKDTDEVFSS
From the text: as §1

[3] = molecular target: T3, human endothelial constitutive NOS (hecNOS) (Homo sapiens, UniProt P29474); assay: Citrulline assay for nitric oxide synthase, hecNOS; assay type: biochemical; settings: recombinant enzyme, 30 μM L-arginine, calmodulin; averages across all experiments and all lots
T3 construct: made in house; host or cells: Sf9 insect cells (baculovirus vector)
T3 sequence (P29474 2-1203): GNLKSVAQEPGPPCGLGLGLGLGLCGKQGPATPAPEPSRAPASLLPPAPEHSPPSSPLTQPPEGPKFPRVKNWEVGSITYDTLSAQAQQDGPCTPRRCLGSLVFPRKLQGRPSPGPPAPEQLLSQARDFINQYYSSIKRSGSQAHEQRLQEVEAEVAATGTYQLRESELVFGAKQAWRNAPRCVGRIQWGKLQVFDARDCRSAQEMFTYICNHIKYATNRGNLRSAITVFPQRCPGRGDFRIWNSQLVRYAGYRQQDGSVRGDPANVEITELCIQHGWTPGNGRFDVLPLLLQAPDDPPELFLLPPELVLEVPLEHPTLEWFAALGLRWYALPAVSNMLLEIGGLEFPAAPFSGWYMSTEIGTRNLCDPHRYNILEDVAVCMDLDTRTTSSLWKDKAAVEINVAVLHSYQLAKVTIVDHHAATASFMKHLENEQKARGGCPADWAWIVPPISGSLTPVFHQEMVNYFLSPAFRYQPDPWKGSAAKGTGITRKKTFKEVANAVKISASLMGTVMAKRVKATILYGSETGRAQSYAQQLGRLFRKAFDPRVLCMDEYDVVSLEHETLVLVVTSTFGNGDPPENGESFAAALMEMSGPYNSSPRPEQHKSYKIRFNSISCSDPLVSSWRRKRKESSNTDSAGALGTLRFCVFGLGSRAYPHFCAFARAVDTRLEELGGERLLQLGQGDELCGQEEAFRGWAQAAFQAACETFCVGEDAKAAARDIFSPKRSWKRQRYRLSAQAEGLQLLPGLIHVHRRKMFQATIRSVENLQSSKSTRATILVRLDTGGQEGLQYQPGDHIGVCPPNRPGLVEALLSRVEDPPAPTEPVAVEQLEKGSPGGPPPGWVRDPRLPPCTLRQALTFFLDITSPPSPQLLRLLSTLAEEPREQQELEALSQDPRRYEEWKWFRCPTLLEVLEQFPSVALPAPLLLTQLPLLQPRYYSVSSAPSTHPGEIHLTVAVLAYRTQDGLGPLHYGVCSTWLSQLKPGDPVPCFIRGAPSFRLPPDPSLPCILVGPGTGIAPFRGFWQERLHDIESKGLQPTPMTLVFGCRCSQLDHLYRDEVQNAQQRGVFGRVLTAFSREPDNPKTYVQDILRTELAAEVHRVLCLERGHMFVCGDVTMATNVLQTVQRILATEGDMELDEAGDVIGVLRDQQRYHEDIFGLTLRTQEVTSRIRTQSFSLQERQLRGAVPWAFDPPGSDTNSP
From the text: as §1

[4] = tested on: nitrite production in human cartilage explants induced with recombinant human IL-1β; assay: Human Cartilage Explant Assay; assay type: cell-based; settings: inhibition of nitrite production, IL-1β-stimulated explants, averages across all experiments and all lots
Description: Bone pieces are rinsed twice with Dulbecco's Phosphate Buffered Saline (GibcoBRL) and once with Dulbecco's Modified Eagles Medium (GibcoBRL) and placed into a petri dish with phenol red free Minimum Essential Medium (MEM) (GibcoBRL). Cartilage was cut into small explants of approximately 15-45 mg in weight and one or two explants per well are placed into either 96 or 48 well culture plates with 200-500 μL of culture media per well. The culture media was either a custom modification of Minimum Essential Medium(Eagle) with Earle's salts (GibcoBRL) prepared without L-Arginine, without L-Glutamine and without phenol red or a custom modification of serumless Neuman and Tytell (GibcoBRL) medium prepared without L-arginine, without insulin, without ascorbic acid, without L-glutamine and without phenol red. Both are supplemented before use with 100 μM L-Arginine (Sigma), 2 mM L-glutamine, 1×HL-1 supplement (BioWhittaker), 50 mg/ml ascorbic acid (Sigma) and 150 pg/ml recombinant human IL-1β (RD Systems) to induce nitric oxide synthase. Compounds are then added in 10 μL aliquots and the explants incubated at 37° C. with 5% CO2 for 18-24 hours. […] This supernatant is analyzed for nitrite with a fluorometric assay (Misko et al, Anal. Biochem., 214, 11-16, 1993). […]

CC(=N)NCC[S+]([O-])C[C@](C)(N)C(=O)O (mixture of isomers) [Example 18, (2R)-2-Amino-3[[2-[(1-iminoethyl)amino]ethyl]sulfmyl]-2-methylpropanoic acid, dihydrochloride]
IC50 [1]: 12 µM | IC50 [2]: 181 µM | IC50 [3]: > 100 µM

CC(=N)NCCSC[C@](C)(N)C(=O)O [Example 1, S-[2-[(1-Iminoethyl)amino]ethyl]-2-methyl-L-cysteine, dihydrochloride]
IC50 [1]: 3.1 µM | IC50 [2]: 15 µM | IC50 [4]: 0.7 µM | IC50 [3]: 77 µM

COC[C@](N)(CSCCNC(C)=N)C(=O)O [Example 2, 2-[[[2-[(1-Iminoethyl)amino]ethyl]thio]methyl]-O-methyl-D-serine, dihydrochloride]
IC50 [1]: 4.4 µM | IC50 [2]: 58 µM | IC50 [3]: 302 µM

CC(=N)NC[C@@H](C)SC[C@](C)(N)C(=O)O [Example 3, S-[(1R)-2-[(1-Iminoethyl)amino]-1-methylethyl]-2-methyl-L-cysteine, dihydrochloride]
IC50 [1]: 74 µM | IC50 [2]: 86 µM | IC50 [3]: 266 µM

CC(=N)NC[C@H](C)SC[C@](C)(N)C(=O)O [Example 4, S-[(1S)-2-[(1-Iminoethyl)aminol-1-methylethyl]-2-methyl-L-cysteine, dihydrochloride]
IC50 [1]: 197 µM | IC50 [2]: 539 µM | IC50 [3]: 1100 µM

CC[C@](N)(CSCCNC(C)=N)C(=O)O [Example 7, S-[2-[(1-Iminoethyl)amino]ethyl]-2-ethyl-L-cysteine, dihydrochloride]
IC50 [1]: 3.4 µM | IC50 [2]: 17 µM | IC50 [3]: 78 µM

CC(=N)NCCSC[C@](N)(C(=O)O)C(C)C [Example 11, 2-[[[[2-(1-Iminoethyl)amino]ethyl]thio]methyl]-D-valine, dihydrochloride]
IC50 [1]: 0.9 µM | IC50 [2]: 6 µM | IC50 [3]: 26 µM

CC(=N)NCCSCC(C)(N)C(=O)O (stereo not drawn) [Example 16, S-[2-(1-Iminoethylamino)ethyl]-2-methyl-(D/L)-cysteine, bistrifluoroacetate]
IC50 [1]: 7.2 µM | IC50 [2]: 36 µM | IC50 [4]: 0.7 µM | IC50 [3]: > 100 µM

CC(=N)NCCS(=O)(=O)C[C@](C)(N)C(=O)O [Example 19, (2R)-2-Amino-3[[2-[(1-iminoethyl)amino]ethyl]sulfonyl]-2-methylpropanoic acid dihydrochloride]
IC50 [1]: 12 µM | IC50 [2]: 220 µM | IC50 [3]: 1080 µM
